Test results published in the NIST ThermoML archive (doi:10.1016/j.jct.2006.03.007).

Test: molar heat capacity at constant pressure
Details: 101.33 kPa, Crystal

O=C(O)c1cccc(C(=O)O)n1 [pyridine-2,6-dicarboxylic acid]
Details | molar heat capacity at constant pressure [J/K/mol]
84.05 K | 56.42
86.4 K | 56.44
88.71 K | 56.5
90.97 K | 56.59
93.19 K | 56.71
95.37 K | 56.85
97.51 K | 57.03
99.63 K | 57.23
101.72 K | 57.46
103.77 K | 57.71
105.81 K | 57.98
107.81 K | 58.27
109.8 K | 58.59
111.76 K | 58.92
113.7 K | 59.27
115.63 K | 59.65
117.53 K | 60.03
119.42 K | 60.44
121.29 K | 60.86
123.15 K | 61.3
124.99 K | 61.76
126.82 K | 62.23
128.63 K | 62.72
130.43 K | 63.22
132.22 K | 63.73
133.99 K | 64.25
135.76 K | 64.8
137.51 K | 65.35
139.25 K | 65.91
140.98 K | 66.49
142.69 K | 67.08
144.4 K | 67.68
146.1 K | 68.29
147.79 K | 68.91
149.46 K | 69.55
151.13 K | 70.19
152.79 K | 70.84
154.44 K | 71.5
156.08 K | 72.18
157.72 K | 72.86
159.35 K | 73.55
160.97 K | 74.25
162.58 K | 74.96
164.18 K | 75.68
165.77 K | 76.4
167.35 K | 77.13
168.92 K | 77.86
170.49 K | 78.61
172.04 K | 79.36
173.59 K | 80.11
175.13 K | 80.88
176.66 K | 81.65
178.19 K | 82.42
179.71 K | 83.2
181.22 K | 83.99
182.72 K | 84.78
184.23 K | 85.59
185.73 K | 86.39
187.22 K | 87.21
188.71 K | 88.03
190.19 K | 88.85
191.66 K | 89.68
193.13 K | 90.52
194.59 K | 91.35
196.06 K | 92.2
197.5 K | 93.04
200.08 K | 94.57
204.09 K | 96.99
207.23 K | 98.92
209.37 K | 100.26
211.49 K | 101.59
213.62 K | 102.95
217.8 K | 105.66
219.85 K | 107.01
221.9 K | 108.37
223.94 K | 109.74
225.95 K | 111.1
227.91 K | 112.43
229.9 K | 113.8
231.78 K | 115.1
233.73 K | 116.46
235.64 K | 117.81
237.61 K | 119.2
239.52 K | 120.56
241.4 K | 121.91
243.27 K | 123.26
245.17 K | 124.63
247.09 K | 126.04
248.98 K | 127.43
250.89 K | 128.84
252.77 K | 130.24
254.65 K | 131.65
256.51 K | 133.04
258.38 K | 134.45
260.23 K | 135.86
262.08 K | 137.27
263.92 K | 138.68
265.74 K | 140.08
267.58 K | 141.5
269.4 K | 142.91
271.2 K | 144.31
273 K | 145.72
274.79 K | 147.12
276.55 K | 148.51
278.32 K | 149.91
280.09 K | 151.31
281.85 K | 152.71
283.59 K | 154.09
285.32 K | 155.48
287.04 K | 156.85
288.74 K | 158.22
290.44 K | 159.59
292.1 K | 160.93
293.75 K | 162.27
295.39 K | 163.6
297.06 K | 164.95
298.72 K | 166.31
300.37 K | 167.65
302.01 K | 168.99
303.64 K | 170.32
305.27 K | 171.65
306.88 K | 172.98
310.09 K | 175.62
311.68 K | 176.93
313.25 K | 178.21
314.76 K | 179.47
316.65 K | 181.03
319.26 K | 183.18
322.04 K | 185.48
324.78 K | 187.75
327.48 K | 189.98
330.16 K | 192.2
332.81 K | 194.4
335.45 K | 196.59
338.09 K | 198.77
340.74 K | 200.97
343.44 K | 203.2
346.14 K | 205.43
348.74 K | 207.58
351.31 K | 209.7
353.85 K | 211.78
356.38 K | 213.86
358.86 K | 215.9
361.34 K | 217.92
363.79 K | 219.91
366.21 K | 221.88
368.6 K | 223.82
370.97 K | 225.73
375.64 K | 229.5
378 K | 231.38
